# Assay results published in PMC4302236, “Functional profile of a novel modulator of serotonin, dopamine, and glutamate neurotransmission” (Psychopharmacology, 2014).
# Read-outs that look alike come from different tables or passages of the source.
# Columns and labels:
# [1] = tested on: serine 40 (S40)-phosphorylated tyrosine hydroxylase; assay: Striatal tyrosine hydroxylase S40 phosphorylation state (CNSProfile immunoblotting); type: in vivo; conditions: mice, acute; ITI-007 3 mg/kg p.o., clozapine 5 i.p., aripiprazole 10 p.o., olanzapine 1 i.p., risperidone 3 p.o., haloperidol 1 i.p.; over 60 min; vs vehicle
# Description: The effect of the selected compounds on the phosphorylation state of tyrosine hydroxylase (TH) was measured and quantitated as an indicator of the potential of each compound to perturb presynaptic dopamine synthesis in striatum. […] This technique preserves in vivo levels of brain protein phosphorylation ([Zhu et al. 2010]). […] Small aliquots of the homogenate were retained for protein determination by the bicinchoninic acid (BCA) protein assay method (Pierce Chemical Co., Rockford, IL). […] Immunoblotting was carried out using a phos-phorylation state-specific polyclonal antibody raised against […] (S40)-phosphorylated tyrosine hydroxylase (Chemicon, Temecula, CA) and a pan-TH monoclonal antibody for measuring the total protein levels (BD Biosciences, San Jose, CA). […] Antibody binding was detected and quantitated using a LiCor Odyssey infrared fluorescent detection system. Phosphorylation at each site detected by phospho-specific antibodies was quantified, normalized to total levels of the protein (non-phosphorylated), and expressed as percent±SEM of the level of phosphorylation in vehicle-treated control mice (N=6).
# [2] = tested on: T1, Adrenergic, 1β; assay: NovaScreen broad selectivity panel at 100 nM, Adrenergic 1β; conditions: average of replicate tubes, read-out: % Inhibition of binding at 100 nM concentration, Adrenergic 1β
# T1 construct: tissue NovaScreen/Caliper/Perkin-Elmer; host or cells: rat liver (inferred)
# [3] = tested on: striatal dopamine metabolism; assay: Striatal dopamine metabolism (HPLC-EC of DA, DOPAC, HVA); type: in vivo, mice; conditions: for DOPAC/DA, chronic (21 day) dosing, mean / HVA/DA, chronic (21 day) dosing, mean: striatum 2 h after last dose; for DOPAC/DA, acute (2 h) dosing, mean / HVA/DA, acute (2 h) dosing, mean: striatum 2 h after dose
# Description: Measurements of tissue dopamine levels were performed at CDC-NIOSH. […] Striatum was rapidly dissected from each mouse brain, weighed, and placed into Eppendorf tubes that were frozen in liquid nitrogen and stored at -80 °C. […] Tissues were homogenized in 100 μl of ice-cold 0.2 M perchloric acid containing 1 μM dihydroxybenzylamine (DHBA) as an internal standard and centrifuged at 10,000×g for 10 min at 4 °C. The supernatant was filtered through a 0.2 μm nitrocellulose membrane, and an aliquot (10 μl) was injected from a temperature-controlled (4 °C) automatic sample injector (Waters 717plus Autosampler) connected to a Waters 515 HPLC pump. Catecholamines were separated on a C18 reverse-phase column ([…]; Waters […] 25 cm×4.6 mm; 5 μm), electrochemically detected (Waters 464 Pulsed Electrochemical Detector; range 10 nA, potential +0.7 V), and analyzed using Millennium software. […] A flow rate of 1 ml/min was used. […] The recovery of each analyte was adjusted with respect to the internal standard and quantified from a standard curve. The levels of dopamine and its metabolites, DOPAC and HVA, were calculated from the AUC values for each (based on microgram per gram (μg/g) tissue wet weight) and expressed as a percent of the saline control.
# [4] = target: T2, 5-HT2A receptor (Homo sapiens, UniProt P28223); conditions: read-out: IC50, antagonism of serotonin-induced increase in calcium fluorescence; serotonin 30 nM
# [5] = tested on: extracellular dopamine; assay: In vivo microdialysis of dopamine and DOPAC in striatum and prefrontal cortex; conditions: rats
# Description: On the day of the experiment (24–48 h after surgery), the microdialysis probes of each animal were connected via the use of flexible PEEK tubing to a microperfusion pump (Harvard Apparatus, PHD 2000 Holliston, MA). Artificial CSF, composed of 147 mM NaCl, 3 mM KCl, 1.2 mM CaCl2, and 1.2 mM MgCl2 was used to perfuse the probes (1.5 μl/min) beginning at 75 min prior to drug treatment. Baseline dialysate collection was begun for all rats 60 min prior to drug administration (t=−60 min) such that a total of […] were collected prior to drug treatment (t=0). […] A control group of rats (N=9) received only the 0.5 % methylcellulose vehicle solution, delivered orally (p.o.). All drug solutions were delivered in a volume of 1 ml/kg of body weight. Every 20 min for the following 3 h, dialysate was collected from both brain regions of each rat. Dialysates were collected into mini-vials containing 7.5 μl of 0.02 M formic acid using an automated fraction collector Univentor 820, Malta. Tubes containing dialysate samples were then frozen at −80 °C until analyzed by HPLC for levels of dopamine and the dopamine metabolite, DOPAC. […] Coronal sections were prepared of each rat brain to verify the position of the dialysis collection probes. Dopamine and DOPAC concentrations were determined in each sample using HPLC separation and electrochemical detection. An aliquot (20 μl) of each dialysate sample was injected onto the HPLC column by means of a refrigerated microsampler system, consisting of a syringe pump (Gilson, model 402), a multi-column injector (Gilson, model 233 XL), and a temperature regulator (Gilson, model 832). The chromatographic separation was performed on a reverse-phase 150 ×2.1 mm (3 μm) C18 Thermo BDS Hypersil column (Keystone Scientific). […] The mobile phase was run at a flow rate of 0.35 ml/min using an HPLC pump (Shimadzu, model LC-10AD vp). Dopamine and DOPAC were electrochemically detected using a potentiostat (Antec Leyden, model Intro) fitted with a glassy carbon electrode set a +500 mV versus Ag/AgCl (Antec, Leyden). Data were analyzed using Chromatography Data System software (Shimadzu, Class-VP, Japan) using an external standard method to quantify concentrations of dopamine and DOPAC. […] Drug effects were expressed as percentages of basal level (mean±SEM) within the same subject. Statistical analysis was performed using Sigmastat for Windows (SPSS Corporation). Drug effects were compared with baseline and vehicle control using a two-way ANOVA for repeated measurements followed by the Newman–Keuls post hoc test. […] For all tests, the level of statistical significance was set at p<0.05.
# [6] = target: T2, 5-HT2A receptor; assay: Serotonin-mediated phosphatidylinositol (PI) turnover in HEK293 cells; type: cell-based; conditions: right-shifting the serotonin dose–response curve
# [7] = tested on: phospho-serine (S) 9 GSK-3β; conditions: mouse, in vivo; for Phospho-S9 GSK-3β, PFC / Phospho-S9 GSK-3β, accumbens / Phospho-S9 GSK-3β, striatum: po
# Description: Each brain was rapidly removed from the skull. Nucleus accumbens, striatum, and prefrontal cortex were dissected free-hand, frozen in liquid nitrogen, and stored at −80 °C until analyzed for phosphoprotein levels. […] Levels of phospho-GSK-3β were normalized for total levels of GSK-3β and expressed as a percent of phosphoprotein levels in the vehicle-injected controls.
# [8] = 1 mg/kg p.o. once daily 21 days
# [9] = 3 mg/kg p.o. once daily 21 days
# [10] = 10 mg/kg p.o. once daily 21 days
# T2 sequence (P28223 whole entry): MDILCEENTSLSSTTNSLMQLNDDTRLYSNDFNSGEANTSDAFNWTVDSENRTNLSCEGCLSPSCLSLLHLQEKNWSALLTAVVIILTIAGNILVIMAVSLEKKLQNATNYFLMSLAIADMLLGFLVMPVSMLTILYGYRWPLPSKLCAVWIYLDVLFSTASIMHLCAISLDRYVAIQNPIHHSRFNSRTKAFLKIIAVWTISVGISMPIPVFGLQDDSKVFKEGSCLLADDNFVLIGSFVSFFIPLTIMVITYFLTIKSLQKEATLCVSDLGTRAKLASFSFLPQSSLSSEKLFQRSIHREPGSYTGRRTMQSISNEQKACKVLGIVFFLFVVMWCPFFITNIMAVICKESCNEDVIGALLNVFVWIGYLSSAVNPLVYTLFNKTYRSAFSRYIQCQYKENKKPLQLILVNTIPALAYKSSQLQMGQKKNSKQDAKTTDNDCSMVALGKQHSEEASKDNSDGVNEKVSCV
# T1 sequence (P15823 whole entry): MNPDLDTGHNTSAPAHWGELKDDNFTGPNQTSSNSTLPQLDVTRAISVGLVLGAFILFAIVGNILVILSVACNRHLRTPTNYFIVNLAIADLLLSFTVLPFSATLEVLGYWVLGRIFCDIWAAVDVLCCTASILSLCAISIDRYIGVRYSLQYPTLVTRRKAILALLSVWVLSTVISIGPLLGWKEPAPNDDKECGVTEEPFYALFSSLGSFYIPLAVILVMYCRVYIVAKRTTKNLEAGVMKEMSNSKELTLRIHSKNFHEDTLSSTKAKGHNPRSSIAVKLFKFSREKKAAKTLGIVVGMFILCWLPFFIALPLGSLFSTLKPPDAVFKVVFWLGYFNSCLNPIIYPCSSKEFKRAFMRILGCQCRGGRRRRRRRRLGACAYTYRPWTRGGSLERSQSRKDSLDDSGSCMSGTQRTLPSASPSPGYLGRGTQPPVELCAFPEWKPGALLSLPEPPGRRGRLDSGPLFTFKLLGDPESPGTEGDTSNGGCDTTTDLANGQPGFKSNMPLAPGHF
compound,measurement,setting,value
"CN1CCN2c3c(cccc31)[C@@H]1CN(CCCC(=O)c3ccc(F)cc3)CC[C@@H]12 [ITI-007, 1-(4-fluoro-phenyl)-4-((6bR,10aS)-3-methyl-2,3,6b,9,10,10a-hexahydro-1H,7H-pyrido[3′,4′:4,5]pyrrolo[1,2,3-de]quinoxalin-8-yl)-butan-1-one]",Effect on TH phosphorylation at S40 in striatum,[1],no significant effect
same,inhibition at 0.1 µM,[2],85.4%
same,"DOPAC/DA, chronic (21 day) dosing, mean",[3]; [8],4.69
same,"HVA/DA, chronic (21 day) dosing, mean",[3]; [8],9.44
same,"DOPAC/DA, acute (2 h) dosing, mean",[3]; 1 mg/kg p.o. once,4.98
same,"HVA/DA, acute (2 h) dosing, mean",[3]; 1 mg/kg p.o. once,8.06
same,"DOPAC/DA, chronic (21 day) dosing, mean",[3]; [9],4.54
same,"HVA/DA, chronic (21 day) dosing, mean",[3]; [9],7.99
same,"DOPAC/DA, acute (2 h) dosing, mean",[3]; 3 mg/kg p.o. once,4.57
same,"HVA/DA, acute (2 h) dosing, mean",[3]; 3 mg/kg p.o. once,7.47
same,"DOPAC/DA, chronic (21 day) dosing, mean",[3]; [10],5.80
same,"HVA/DA, chronic (21 day) dosing, mean",[3]; [10],10.47
same,"DOPAC/DA, acute (2 h) dosing, mean",[3]; 10 mg/kg p.o. once,6.02
same,"HVA/DA, acute (2 h) dosing, mean",[3]; 10 mg/kg p.o. once,8.40
same,IC50,[4],7 nM
same,DA efflux in mPFC,"[5]; 3 mg/kg p.o., p<0.05",significantly increased
same,DA efflux in mPFC,"[5]; 10 mg/kg p.o., trend toward an increase",not statistically significant
same,Effect on serotonin-mediated increases in phosphatidylinositol (PI) turnover,[6],antagonize
same,Effect on S9 GSK-3β phosphorylation in striatum at any dose tested,[7],no significant effect
same,"Phospho-S9 GSK-3β, PFC",[7]; 3 mg/kg,103.4±3.1 % vehicle control
same,"Phospho-S9 GSK-3β, accumbens",[7]; 3 mg/kg,122.9±8.6 % vehicle control
same,"Phospho-S9 GSK-3β, striatum",[7]; 3 mg/kg,106.6±2.1 % vehicle control
same,"Phospho-S9 GSK-3β, striatum",[7]; 10 mg/kg,98.2±5.1 % vehicle control
same,"Phospho-S9 GSK-3β, PFC",[7]; 30 mg/kg,112.1±2.7 % vehicle control
same,"Phospho-S9 GSK-3β, accumbens",[7]; 30 mg/kg,105.5±2.2 % vehicle control
same,"Phospho-S9 GSK-3β, striatum",[7]; 30 mg/kg,108.0±2.9 % vehicle control
